Results reported in patent US10441597B2, “Ciclesonide for the treatment of airway disease in horses” (Boehringer Ingelheim Vetmedica GmbH, priority 2012, dated 2019).
Entries after “also recorded” stand apart in the source; their conditions may differ. Blank lines part the entries; values can stand above or below the compound they belong to.

How the values were obtained:
IAD horse = assay: Impulse oscillometry lung function in one IAD horse (4th ciclesonide study); assay type: in vivo; details: 2700 μg ciclesonide twice daily for 14 days
Description: Ciclesonide is investigated in a baseline controlled, blinded study examining one (1) IAD horse. […] Lung function variables using the impulse oscillometry system (respiratory resistance (Rrs) and reactance (Xrs) are examined during the study.

[1] = Concentration of ciclesonide and metabolite in equine plasma (HPLC-MS/MS); details: for Ciclesonide concentration in equine plasma: 2nd ciclesonide study, n=8 mean
cortisol levels = details: humans; after aerosol administration/inhalation; cited from earlier work
RAO horses [2] = assay: Moldy hay challenge study in RAO horses: lung function variables (transpulmonary pressure, lung resistance, lung elastance); assay type: in vivo, horse
Description: (§1) The commercially available […]® is used in the study.

serum cortisol = assay: Moldy hay challenge study in RAO horses: serum cortisol; details: for Serum cortisol levels: any measured time point
RAO horses [3] = assay: Moldy hay challenge study in RAO horses: clinical score (breathing effort score, weighted clinical score); assay type: in vivo, horse; details: for Breathing effort score: 1st ciclesonide study, any measured time point
Description: as §1

[4] = test system: segmented neutrophils and lymphocytes; assay: Moldy hay challenge study in RAO horses: segmented neutrophil and lymphocyte counts; assay type: in vivo, horse; details: for Lymphocytes / Segmented neutrophils: nozzle B, n=7 mean; for Lymphocytes count after administration / Segmented neutrophil count after administration: dexamethasone 0.066 mg/kg per os once daily
Method: as §1
The segmented neutrophil counts and the lymphocyte counts are determined in the studies above: ciclesonide treatment versus dexamethasone treatment.

[5] = when taken orally; cited from earlier work
[6] = frequencies 0.2 to 2 Hz, in contrast to pretreatment values
[7] = 1st ciclesonide study, ciclesonide 450/900/1800 μg/horse twice daily
[8] = 2nd ciclesonide study, ciclesonide 1687.5 B/2700 A/2700 B μg twice daily
[9] = 3rd ciclesonide study, ciclesonide groups
[10] = D 0, 2700 μg ciclesonide/horse twice daily inhaled 14 days, 3rd ciclesonide study
[11] = D 0, 3712.5 μg ciclesonide/horse once daily in the evening inhaled 14 days, 3rd ciclesonide study
[12] = D 0, 3712.5 μg ciclesonide/horse once daily in the morning inhaled 14 days, 3rd ciclesonide study
[13] = D 14, 2700 μg ciclesonide/horse twice daily inhaled 14 days, 3rd ciclesonide study
[14] = D 14, 3712.5 μg ciclesonide/horse once daily in the evening inhaled 14 days, 3rd ciclesonide study
[15] = D 14, 3712.5 μg ciclesonide/horse once daily in the morning inhaled 14 days, 3rd ciclesonide study
[16] = D 21, 2700 μg ciclesonide/horse twice daily inhaled 14 days, 3rd ciclesonide study
[17] = D 21, 3712.5 μg ciclesonide/horse once daily in the evening inhaled 14 days, 3rd ciclesonide study
[18] = D 21, 3712.5 μg ciclesonide/horse once daily in the morning inhaled 14 days, 3rd ciclesonide study

Ciclesonide concentration in equine plasma ([1]; day 1, 0 min, ciclesonide 2700 μg nozzle B twice daily inhaled): <0.500 nmol/L
Ciclesonide concentration in equine plasma ([1]; day 1, 1 h, ciclesonide 2700 μg nozzle B twice daily inhaled): <0.500 nmol/L
Ciclesonide concentration in equine plasma ([1]; day 1, 2 h, ciclesonide 1687.5 μg nozzle B twice daily inhaled): <0.500 nmol/L
Ciclesonide concentration in equine plasma ([1]; day 1, 2 h, ciclesonide 2700 μg nozzle B twice daily inhaled): <0.500 nmol/L
Ciclesonide concentration in equine plasma ([1]; day 1, 4 h, ciclesonide 1687.5 μg nozzle B twice daily inhaled): <0.500 nmol/L
Ciclesonide concentration in equine plasma ([1]; day 1, 4 h, ciclesonide 2700 μg nozzle B twice daily inhaled): <0.500 nmol/L
Ciclesonide concentration in equine plasma ([1]; day 11, 0 min, ciclesonide 2700 μg nozzle A twice daily inhaled): <0.500 nmol/L
Ciclesonide concentration in equine plasma ([1]; day 11, 0 min, ciclesonide 2700 μg nozzle B twice daily inhaled): <0.500 nmol/L
Ciclesonide concentration in equine plasma ([1]; day 11, 1 h, ciclesonide 2700 μg nozzle A twice daily inhaled): <0.500 nmol/L
Ciclesonide concentration in equine plasma ([1]; day 11, 1 h, ciclesonide 2700 μg nozzle B twice daily inhaled): <0.500 nmol/L
Ciclesonide concentration in equine plasma ([1]; day 11, 2 h, ciclesonide 2700 μg nozzle A twice daily inhaled): <0.500 nmol/L
Ciclesonide concentration in equine plasma ([1]; day 11, 2 h, ciclesonide 2700 μg nozzle B twice daily inhaled): <0.500 nmol/L
Ciclesonide concentration in equine plasma ([1]; day 11, 4 h, ciclesonide 2700 μg nozzle A twice daily inhaled): <0.500 nmol/L
Ciclesonide concentration in equine plasma ([1]; day 11, 4 h, ciclesonide 2700 μg nozzle B twice daily inhaled): <0.500 nmol/L
Conversion of ciclesonide into the effective molecule C21-C21-desisobutyrylciclesonide ([1]; in horses, example 5): can be converted
Serum cortisol levels (serum cortisol; 1st ciclesonide study, any ciclesonide group (450/900/1800 μg/horse twice daily)): no significant reduction
Serum cortisol levels (serum cortisol; 2nd ciclesonide study, any ciclesonide group (1687.5 B/2700 A/2700 B μg twice daily)): no significant reduction
Serum cortisol levels (serum cortisol; 3rd ciclesonide study, any ciclesonide group (2700 μg twice daily/3712.5 μg morning/3712.5 μg evening)): no significant reduction
Cortisol level compared to values prior to treatment (serum cortisol; after administration of the highest ciclesonide dose, example 3): does not change significantly
Serum cortisol level of horses (serum cortisol; ciclesonide, treatment for two weeks with different dose levels, Examples 2-3): no decrease
Counts of lymphocytes after administration [4, 7]: no change
Counts of segmented neutrophils after administration [4, 7]: no or minor increase
Counts of lymphocytes after administration [4, 8]: no change
Counts of segmented neutrophils after administration [4, 8]: no or minor increase
Counts of lymphocytes after administration [4, 9]: no change
Counts of segmented neutrophils after administration [4, 9]: no or minor increase
Lymphocytes [4, 10]: 2.55e+09 L⁻¹
Segmented neutrophils [4, 10]: 3.97e+09 L⁻¹
Lymphocytes [4, 11]: 2.55e+09 L⁻¹
Segmented neutrophils [4, 11]: 3.73e+09 L⁻¹
Lymphocytes [4, 12]: 2.21e+09 L⁻¹
Segmented neutrophils [4, 12]: 4.37e+09 L⁻¹
Lymphocytes [4, 13]: 2.54e+09 L⁻¹
Segmented neutrophils [4, 13]: 4.57e+09 L⁻¹
Lymphocytes [4, 14]: 2.43e+09 L⁻¹
Segmented neutrophils [4, 14]: 4.37e+09 L⁻¹
Lymphocytes [4, 15]: 2.48e+09 L⁻¹
Segmented neutrophils [4, 15]: 4.45e+09 L⁻¹
Lymphocytes [4, 16]: 2.49e+09 L⁻¹
Segmented neutrophils [4, 16]: 3.47e+09 L⁻¹
Lymphocytes [4, 17]: 2.48e+09 L⁻¹
Segmented neutrophils [4, 17]: 3.41e+09 L⁻¹
Lymphocytes [4, 18]: 2.66e+09 L⁻¹
Segmented neutrophils [4, 18]: 3.75e+09 L⁻¹
Compound: CC(C)C(=O)OCC(=O)[C@@]12O[C@H](C3CCCCC3)O[C@@H]1C[C@H]1[C@@H]3CCC4=CC(=O)C=C[C@]4(C)[C@H]3[C@@H](O)C[C@@]12C [ciclesonide, (11β,16α)-16,17-[[(R)-Cyclohexylmethylene]bis(oxy)]-11-hydroxy-21-(2-methyl-1-oxopropoxy)pregna-1,4-diene-3,20-dione]
Mean respiratory reactance in inspiration versus expiration (IAD horse; [6]): not different
Mean respiratory resistance in inspiration versus expiration (IAD horse; [6]): not different
Mean respiratory resistance (Rrs) compared to pretreatment values (IAD horse; frequencies 0.2 to 20 Hz, mean of three measurements): decreased
Mean respiratory reactance (Xrs) compared to pretreatment values (IAD horse; frequencies 5 to 10 Hz, mean of three measurements): decreased
Measured cortisol levels (cortisol levels): no or clinically not relevant cortisol suppression
ΔPL and EL compared to pretreatment values (RAO horses [2]; 1st ciclesonide study, ciclesonide 1800 μg/horse twice daily inhaled (only the highest dose), after 14 days, p=0.0005 and p=0.0004): statistically significant reduction
Difference in ΔPL and EL versus dexamethasone group (RAO horses [2]; 1st ciclesonide study, ciclesonide 1800 μg/horse twice daily, after 14 days): no significant difference
All lung function variables compared to pretreatment values (RAO horses [2]; 2nd ciclesonide study, all ciclesonide groups (1687.5 μg nozzle B/2700 μg nozzle A/2700 μg nozzle B twice daily), after 14 days, p=0.0009 to p<0.0001): significantly reduced
Difference in lung function variables versus dexamethasone group (RAO horses [2]; 2nd ciclesonide study, all ciclesonide groups, after 7 or 14 days): no significant difference
Difference in lung function variables (ΔPL, RL) versus placebo group (RAO horses [2]; 3rd ciclesonide study, all ciclesonide groups, after 14 days, p<0.0001 (2700 μg, 3712.5 μg evening), p=0.0005 ΔPL / p=0.0003 RL (3712.5 μg morning)): significant difference
Change in ΔPL compared to pretreatment values (RAO horses [2]; 3rd ciclesonide study, ciclesonide 2700 μg twice daily, after 7 days, p<0.0001): significantly reduced
ΔPL and RL compared to pretreatment values (RAO horses [2]; 3rd ciclesonide study, ciclesonide 2700 μg twice daily, after 14 days, p<0.0001): significantly reduced
Reduction of ΔPL and RL compared to pretreatment values (RAO horses [2]; 3rd ciclesonide study, ciclesonide 2700 μg, after 7 days, p<0.0001): statistically significant
Reduction of RL compared to pretreatment values (RAO horses [2]; 3rd ciclesonide study, ciclesonide 2700 μg, after 7 days, p=0.0002): statistically significant
Change in ΔPL compared to pretreatment values (RAO horses [2]; 3rd ciclesonide study, ciclesonide 3712.5 μg once daily in the evening, after 7 days, p=0.001): significantly reduced
RL compared to pretreatment values (RAO horses [2]; 3rd ciclesonide study, ciclesonide 3712.5n (once daily in the evening), after 14 days, p=0.0001): significantly reduced
Lung function variables compared to pretreatment values and to placebo group (RAO horses [2]; 3rd ciclesonide study, ciclesonide treatment groups, after 14 days): significantly reduced
Efficacy relative to dexamethasone measured in lung function variables and clinical score (RAO horses [2]; moldy hay challenge model, RESPIMAT inhaler with Equine Inhaler device, examples 1 and 3): comparable efficacy
Breathing effort score (RAO horses [3]; ciclesonide 450/900/1800 μg/horse twice daily): no significant changes
Weighted clinical score compared to pretreatment values (RAO horses [3]; 2nd ciclesonide study, all three ciclesonide groups, after 14 days, p=0.0001 to p<0.0001): significantly reduced
Difference in weighted clinical score versus dexamethasone group (RAO horses [3]; 2nd ciclesonide study, ciclesonide treatment groups, after 14 days): no significant difference
Weighted clinical score compared to pretreatment values (RAO horses [3]; 3rd ciclesonide study, ciclesonide 2700 μg twice daily, after 7 and 14 days, p=0.0001 (7 days), p=0.0003 (14 days)): significantly reduced
Difference in weighted clinical score versus placebo group (RAO horses [3]; 3rd ciclesonide study, ciclesonide treatment groups, after 14 days, p=0.0002 (2700 μg, 3712.5 μg evening), p=0.0006 (3712.5 μg morning)): significant difference
Alteration in the immune system measured by neutrophilia and lymphopenia ([4]; ciclesonide, treatment for two weeks with different dose levels, 1st and 2nd ciclesonide studies (Table 2)): no alteration; also recorded: not observed

Lymphocytes count after administration ([4]; 1st ciclesonide study): decreased
Segmented neutrophil count after administration ([4]; 1st ciclesonide study): increased
Lymphocytes count after administration ([4]; 2nd ciclesonide study): decreased
Segmented neutrophil count after administration ([4]; 2nd ciclesonide study): increased
Neutrophilia and lymphopenia ([4]; after treatment with dexamethasone, 1st and 2nd ciclesonide studies (Table 2)): commonly observed
Compound: C[C@@H]1C[C@H]2[C@@H]3CCC4=CC(=O)C=C[C@]4(C)[C@@]3(F)[C@@H](O)C[C@]2(C)[C@@]1(O)C(=O)CO [dexamethasone]
All lung function variables compared to pretreatment values (RAO horses [2]; 1st ciclesonide study, dexamethasone 0.066 mg/kg per os once daily, after 14 days, p<0.0001): significantly reduced
All lung function variables compared to pretreatment values (RAO horses [2]; 2nd ciclesonide study, dexamethasone 0.066 mg/kg per os once daily, after 14 days, p=0.0009 to p<0.0001): significantly reduced
All lung function variables compared to pretreatment values (RAO horses [2]; Budesonide study, dexamethasone 0.066 mg/kg per os once daily, after 14 days, p≤0.0001): significantly reduced
Potency relative to prednisone [5]: 7 times
Potency relative to the naturally occurring hormone cortisol [5]: 27 times
Breathing effort score (RAO horses [3]; dexamethasone 0.066 mg/kg per os once daily): no significant changes
Weighted clinical score compared to pretreatment values (RAO horses [3]; 2nd ciclesonide study, dexamethasone 0.066 mg/kg per os once daily, after 14 days, p=0.0001 to p<0.0001): significantly reduced
Clinical score compared to pretreatment values (RAO horses [3]; Budesonide study, dexamethasone 0.066 mg/kg per os once daily, after 7 and 14 days, p=0.002 to p<0.0001): significantly reduced
